One data set concerns SARS-CoV Strain v2163. The following applies: in vivo, cited from earlier work.
Data set [1] deals with SARS coronavirus 2003VA2774. Conditions: cited from earlier work.
The test system of data set [2] is SARS coronavirus Strain 39849. The following applies: Strain 39849/Vero E6; cited from earlier work.
Data set [3] relates to SARS-associated coronavirus Strain FFM1. The following applies: Strain FFM1/Caco-2; cited from earlier work.
For data set [4] the test system is unchanged. The following applies: Strain FFM1/CL-14; cited from earlier work.
For data set [5] the following is noted: human; cited from earlier work.
Data set [6] in a line: Development of antibodies to the dsRNA in usage. The source says: (§1) Of the tdsRNA of the disclosure, the tdsRNA of formula 1 and formula 5 is preferred. This is because mis-paired regions of base pair hydrogen bonding accelerate chain hydrolysis while preserving biological activity compared to, for example, formula 3 and formula 4. Also formula 1 and formula 5 had decreased toxicity and improved safety compared to the tdsRNA which has an absence of mis-pairing.

In another data set the test system is TNF-α. Put plainly: TNF-α induction.
Source text: as §1

In the next data set the test system is TLR3. The experiment in a line: TLR3 agonist selectivity versus RNA helicase sensors (MDA5, RIG-I). The following applies: versus TLR-3 independent pathways (MDA5, RIG-I).
Source text: as §1

Another data set deals with human CoV strain OC43. Conditions: Strain OC43/BS-C-1 Kidney cells (African Green Monkey); inhibition of CPE; cited from earlier work.
The test system of data set [7] is SARS-CoV-2 (strain USA-WA1/2020). The experiment in a line: microbe, parasite or virus in culture. It is filed as cell-based.
The next data set relates to Ebola Virus. Conditions: in vivo, 6 mg/kg.
Data set [8] is described as follows: Clinical safety and tolerability in humans. It is filed as in vivo, human. The source says:
Favorable safety profiles have been seen for intraperitoneal, intravenous, and intranasal routes of administration of tdsRNA.

The nature of data set [9]: Synergy of rintatolimod with antiviral and antiproliferative drugs. The source says: These interferons include rIFN-α-2a, rIFN-β-1b, rIFN-γ.
The test system of data set [10] is normal, human-derived tracheal/bronchial epithelial (TBE) cells.
Data set [11] deals with SARS virus (Urbani Strain). The following applies: in vivo, cited from earlier work.
A further data set relates to Mouse Hepatitis CoV MHV. The following applies: Mouse Hepatitis CoV MHV/BALB/c mice/IP; 10 μg/dose; cited from earlier work.
For data set [12] the following is noted: cited from earlier work.
The test system of the next data set is H5N1 influenza viruses. Conditions: in vivo; cited from earlier work.
The subject of another data set is H5N1 influenza virus. Conditions: in vivo; cited from earlier work.
In data set [13] the test system is avian H5N1 and H7N9 influenza hemagglutinins (HAs). Conditions: in vivo; cited from earlier work.

Converted amounts (≈) assume the structure as drawn. “Also recorded” adds a separate entry of the source. Read-outs that look alike come from different tables or passages of the source.

As to `NC(=O)c1ncn([C@@H]2O[C@H](CO)[C@@H](O)[C@H]2O)n1` [Ribavirin], the “Survival (mice surviving/total)” value in the data set on SARS-CoV Strain v2163 was “(3/10) 65”. Also, the IC100 entry in data set [1] is “IC100: 5,000 μg/mL”. For the same molecule, the values for the EC50 result in data set [2], in [3] and in data set [4] were “EC50: 50-100 μg/mL”, “EC50: 4.7 μg/mL” and “EC50: 5.3 μg/mL”, respectively. The “clinically achievable serum concentrations” value in data set [5] is 3.7 µg/mL.
As for rugged dsRNA [formula 5], in data set [6], the development of antibodies entry is listed as “no development of antibodies”. For the same molecule, the TNF-α induction entry in the data set with TNF-α is “does not induce TNF-α”. In addition, in the data set on TLR3, the TLR3 agonist selectivity result is given as “selective TLR3 agonist”.
For rIn.rCn [formula 4], the TNF-α induction result in the data set on TNF-α is on record as “high levels”. The TLR3 agonist selectivity result with TLR3 is on record as “non-selective”.
As to “Polyribosinic-Polyribocytidylic Acid Stabilized with Poly-L-lysine, in Carboxymethylcellulose [Poly ICLC]”, the EC50 entry with human CoV strain OC43 is listed as “EC50: >100 μg/mL”.
For the molecule `CCC(CC)COC(=O)[C@H](C)N[P@](=O)(OC[C@H]1O[C@@](C#N)(c2ccc3c(N)ncnn23)[C@H](O)[C@@H]1O)Oc1ccccc1` [Remdesivir], the “Log10 CCID50 virus per 0.2 mL” value amounted to 4.30 in data set [7] (0.001 μg/mL), 3.67 in [7] (0.01 μg/mL), 3.00 in data set [7] (0.1 μg/mL) and 3.00 in [7] (1 μg/mL). Besides, the EC90 in [7] (Severe acute respiratory syndrome coronavirus 2, read-out: EC90 (concentration to reduce virus yield by 1 log10)) turned out to be 0.01 µg/mL (≈ 0.0166 µM).
Molecule rIn.r(C12U)n [Rintatolimod] registered a Survival in the data set on Ebola Virus of 100%. In addition, in [8] (clinical trials, over 1,200 patients), the drug-related deaths entry was “no drug-related deaths”. Moreover, the “tolerability in clinical trials” value in data set [8] (over 1,200 patients, over 100,000 doses) was “well-tolerated”. Also, in data set [8] (two placebo-controlled, randomized studies), the “serious adverse events compared to placebo” value is “no increase”. For the same molecule, the “synergy with α, β, and γ interferons, antiviral indication” value in [9] (HIV/AIDS, rIFN-α-2a, rIFN-β-1b, rIFN-γ) is listed as “synergy; also recorded: synergistic”. The “synergy with small molecule antiviral drugs” value in data set [9] (Influenza (oseltamivir, zanamivir), HIV/AIDS (abacavir, zidovudine, zalcitabine, didanosine, stavudine, efavirenz, indinavir, ritonavir, nelfinavir, amprenavir, ribavirin)) is recorded as “synergy; also recorded: synergistic”. The “synergy, antiproliferative (cancer) indications” value in data set [9] (interferons (nIFN-α, rIFN-α-2a, nIFN-β, rIFN-β-1b, nIFN-γ), IL-2, Anti-PD-L1) is “synergistic”. Moreover, in data set [10] (0.5 mg/mL), the “cytotoxic / cellular toxicity” value is 0%. Besides, the “cytotoxic / cellular toxicity” value in data set [10] (1.5 mg/mL) is 0%. Also, the cytotoxic in data set [10] (4.5 mg/mL) amounted to 12%. Further, the cytotoxic in data set [10] (10 mg/mL) turned out to be 47%. Moreover, in [11] (ip), the “Drug Dose giving reduction of virus lung titers below level of detection on Day 3” value is reported as 10 mg/kg. Moreover, the “SARS virus (Urbani Strain) titers in the lungs” value in data set [11] is reported as “Complete inhibition to below detectable levels; also recorded: reduced virus lung titers to below detectable limits”. For the same molecule, the “lung scores and weight loss” value in the data set on SARS-CoV Strain v2163 (10 mg/kg/day) is listed as “significantly reduced”. In addition, in the data set on SARS-CoV Strain v2163, the Survival is listed as 100%; the “Survival (mice surviving/total)” value was 10/10 and (10/10); the “decline of virus in the lungs compared with untreated animals” value is reported as “more rapid decline of virus in the lungs”. For the same molecule, the Survival entry in the data set on Mouse Hepatitis CoV MHV is recorded as “increased survival”. For the same molecule, the “tolerability of dosage level” value in [12] (700 mg in an average weight human (70 kg), equivalent to 10 mg/kg) is recorded as “generally well-tolerated”. Also, the tolerability administered intravenously result in [12] (Chronic Fatigue Syndrome (CFS) patients, placebo-controlled trials) is listed as “generally well-tolerated”. For the same molecule, in the data set with H5N1 influenza viruses, the “antigen specific IgA response in the nasal mucosa” value is “robust antigen specific IgA response”; the “protection against challenge with homologous and heterologous H5N1 influenza viruses” value is listed as “protected”. For the same molecule, in the data set with H5N1 influenza virus, the “Vaccine specific salivary IgA and serum IgG antibodies” value is reported as “detected after the second immunization”; the “protection from challenge infection with the homologous virus” value was “completely protected”; the “serum neutralizing antibody activity against homologous and heterologous H5N1 influenza virus” value is reported as “developed serum neutralizing anti-body activity”. Further, in [13], the “cross-reactive IgA antibody formation against avian H5N1 and H7N9 influenza hemagglutinins” value is “induced cross-reactive IgA antibody formation”; the “tolerability of combinational use with FluMist” value is reported as “well tolerated”.
On to rIn.r(CxU)n [formula 1], for which, in [6], the development of antibodies entry is given as “no development of antibodies”. For the same molecule, the TNF-α induction entry in the data set with TNF-α was “does not induce TNF-α”. The TLR3 agonist selectivity entry in the data set with TLR3 was “selective TLR3 agonist”.
